Legend:
[1] = target: T1, CDK1 (Homo sapiens, UniProt P06493); assay: KdELECT binding assay, CDK1; details: CDK1, Table 9
T1 construct: made in house; host or cells: E. coli BL21-derived host (T7 phage) or HEK-293 ('BEK-293' [sic])
Protocol: (§1) Compounds were tested using a KdELECT. Kinase-tagged T7 phage strains were prepared in an E. coli host derived from the BL21 strain. E. coli were grown to log-phase and infected with T7 phage and incubated with shaking at 32° C. until lysis. The lysates were centrifuged and filtered to remove cell debris. The remaining kinases were produced in BEK-293 cells and subsequently tagged with DNA for qPCR detection. Streptavidin-coated magnetic beads were treated with biotinylated small molecule ligands for 30 minutes at room temperature to generate affinity resins for kinase assays. The liganded beads were blocked with excess biotin and washed with blocking buffer (SeaBlock (Pierce), 1% BSA, 0.05% Tween 20, 1 mM DTT) to remove unbound ligand and to reduce non-specific binding. Binding reactions were assembled by combining kinases, liganded affinity beads, and test compounds in 1× binding buffer (20% SeaBlock, 0.17×PBS, 0.05% Tween 20, 6 mM DTT). Test compounds were prepared as 111× stocks in 100% DMSO. Kd values were determined using an 11-point 3-fold compound dilution series with three DMSO control points. All compounds for Kd measurements are distributed by acoustic transfer (non-contact dispensing) in 100% DMSO. The compounds were then diluted directly into the assays such that the final concentration of DMSO was 0.9%. All reactions performed in polypropylene 384-well plate. Each was a final volume of 0.02 mL. The assay plates were incubated at room temperature with shaking for 1 hour and the affinity beads were washed with wash buffer (lx PBS, 0.05% Tween 20). The beads were then re-suspended in elution buffer (lx PBS, 0.05% Tween 20, 0.5 μM nonbiotinylated affinity ligand) and incubated at room temperature with shaking for 30 minutes. The kinase concentration in the eluates was measured by qPCR.

[2] = target: T2, androgen receptor (Homo sapiens, UniProt P10275); assay: Binding affinity to androgen receptor ([3H]methyltrienolone radioligand, cell cytosol); details: Table 6
T2 construct: endogenous in cells; host or cells: unnamed cells (cytosol fraction)
T2 sequence (P10275 1-920): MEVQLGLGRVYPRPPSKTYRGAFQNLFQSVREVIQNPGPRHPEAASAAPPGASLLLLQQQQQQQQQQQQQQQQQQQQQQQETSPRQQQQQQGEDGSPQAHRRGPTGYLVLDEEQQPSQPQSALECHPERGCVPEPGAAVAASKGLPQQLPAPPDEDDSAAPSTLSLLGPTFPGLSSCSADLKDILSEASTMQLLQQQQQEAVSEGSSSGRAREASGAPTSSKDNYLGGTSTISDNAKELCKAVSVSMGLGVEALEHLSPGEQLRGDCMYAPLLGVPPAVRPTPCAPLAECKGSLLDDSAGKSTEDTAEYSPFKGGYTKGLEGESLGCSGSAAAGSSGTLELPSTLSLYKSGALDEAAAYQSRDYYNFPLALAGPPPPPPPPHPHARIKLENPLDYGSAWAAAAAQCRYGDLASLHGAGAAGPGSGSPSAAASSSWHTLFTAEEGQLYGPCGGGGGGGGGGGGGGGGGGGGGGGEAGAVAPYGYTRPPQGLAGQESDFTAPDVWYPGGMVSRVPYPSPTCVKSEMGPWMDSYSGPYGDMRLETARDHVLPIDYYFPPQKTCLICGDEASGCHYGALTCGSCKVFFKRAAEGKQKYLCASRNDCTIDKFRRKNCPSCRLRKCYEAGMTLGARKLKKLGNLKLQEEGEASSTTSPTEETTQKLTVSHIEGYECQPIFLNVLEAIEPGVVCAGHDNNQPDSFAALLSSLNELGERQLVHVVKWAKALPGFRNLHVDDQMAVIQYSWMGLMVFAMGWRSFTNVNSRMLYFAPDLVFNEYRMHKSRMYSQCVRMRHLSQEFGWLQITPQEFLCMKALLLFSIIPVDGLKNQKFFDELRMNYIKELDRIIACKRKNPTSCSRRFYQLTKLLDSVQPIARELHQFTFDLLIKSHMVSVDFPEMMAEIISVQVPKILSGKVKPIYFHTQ
Protocol: Fractions of cell cytosol ([…]) were incubated for 24 hr at 4° C. with 1 nM [^3H]methyltrienolone in the absence or presence of the test compound in a buffer containing 25 mM Hepes-Tris (pH 7.4), 1 mM EDTA, 10 mM Na2MoO4, 2 mM DTT, 5 μM triamcinolone acetonide, and 10% glycerol. Nonspecific binding was determined in the presence of 1 μM testosterone. Following incubation, the samples were filtered rapidly under vacuum through glass fiber filters (GF/B, Packard) presoaked with 0.3% PEI and rinsed several times with ice-cold 50 mM Tris-HCl using a 96-sample cell harvester (Unifilter, Packard). The filters were dried then counted for radioactivity in a scintillation counter (Topcount, Packard) using a scintillation cocktail (Microscint 0, Packard). The results are expressed as a percent inhibition of the control radioligand specific binding. The standard reference compound is testosterone, which is tested in each experiment at several concentrations to obtain a competition curve from which its IC50 is calculated.

[3] = target: T3, CDK2 (Homo sapiens, UniProt P24941); assay: KdELECT binding assay, CDK2; details: CDK2, Table 8
T3 construct: made in house; host or cells: E. coli BL21-derived host (T7 phage) or HEK-293 ('BEK-293' [sic])
Protocol: as §1, with “All reactions performed in polypropylene 384-well plate. Each was a final volume of 0.02 mL. The assay plates were incubated at room temperature with shaking for 1 hour and the affinity beads were washed with wash buffer (lx PBS, 0.05% Tween 20). The beads were then re-suspended in elution buffer (lx PBS, 0.05% Tween 20, 0.5 μM nonbiotinylated affinity ligand) and incubated at room temperature with shaking for 30 minutes.” left out

T1 sequence (P06493 whole entry): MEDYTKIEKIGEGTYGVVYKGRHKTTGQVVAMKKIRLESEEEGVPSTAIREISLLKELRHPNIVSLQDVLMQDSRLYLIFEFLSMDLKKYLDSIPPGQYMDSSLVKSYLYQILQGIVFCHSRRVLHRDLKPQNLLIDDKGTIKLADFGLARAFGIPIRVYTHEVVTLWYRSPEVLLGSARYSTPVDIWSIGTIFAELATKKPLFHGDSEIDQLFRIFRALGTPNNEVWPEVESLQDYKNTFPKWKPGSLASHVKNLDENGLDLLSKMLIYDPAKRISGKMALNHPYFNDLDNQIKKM

Kd [1]	Kd [2]	Kd [3]	Structure (SMILES)
> 2.5 µM			CCc1cnn2c(NCc3ccc(OCC4CCN(CC5CCN(c6ncc(C(=O)N[C@H]7C(C)(C)[C@H](Oc8ccc(C#N)c(Cl)c8)C7(C)C)cn6)CC5)CC4)nc3)cc(N3CCCC[C@H]3CCO)nc12 [Compound I-51]
> 2.5 µM	< 0.05 µM	> 2.5 µM	CCc1cnn2c(NCc3ccc(OCCOCCOCCOC4CCN(c5ncc(C(=O)N[C@H]6C(C)(C)[C@H](Oc7ccc(C#N)c(Cl)c7)C6(C)C)cn5)CC4)nc3)cc(N3CCCC[C@H]3CCO)nc12 [Compound I-8]
> 2.5 µM	< 0.05 µM		CCc1cnn2c(NCc3ccc(COCCN4CCN(CC5CCN(c6ncc(C(=O)N[C@H]7C(C)(C)[C@H](Oc8ccc(C#N)c(Cl)c8)C7(C)C)cn6)CC5)CC4)nc3)cc(N3CCCC[C@H]3CCO)nc12 [Compound I-42]

From patent US20260159520A1, “HETEROBIFUNCTIONAL COMPOUNDS AND METHODS OF TREATING DISEASE” (Halda Therapeutics OpCo, Inc., priority 2022, published 2026)
